For assay [1], the target named is T1, CFTR (Homo sapiens, UniProt P13569). Kind of assay: Membrane Potential Dye, Enteroid Assay A. It counts as cell-based. As to conditions: for EC50: read-out: Ent. A EC50. How it is done:
Base medium (ADF+++) consisted of Advanced […], 2 mM Glutamax, 10 mM HEPES, 1 μg/mL penicillin/streptomycin.
Intestinal enteroid maintenance medium (IEMMN) consisted of ADF+++, 1× B27 supplement, 1× N2 supplement, 1.25 mM N-acetyl cysteine, 10 mM Nicotinamide, 50 ng/mL hEGF, 10 nM Gastrin, 1 μg/mL hR-spondin-1, 100 ng/mL hNoggin, TGF-b type 1 inhibitor A-83-01, 100 μg/mL Primocin, 10 μM P38 MAPK inhibitor SB202190.
Bath 1 Buffer consisted of 1 mM MgCl2, 160 mM NaCl, 4.5 mM KCl, 10 mM HEPES, 10 mM Glucose, 2 mM CaCl2).
Chloride Free Buffer consisted of 1 mM Magnesium Gluconate, 2 mM Calcium Gluconate, 4.5 mM Potassium Gluconate, 160 mM Sodium Gluconate, 10 mM HEPES, 10 mM Glucose.
Bath 1 Dye Solution consisted of Bath 1 Buffer, 0.04% Pluronic F127, 20 μM Methyl Oxonol, 30 μM CaCCinh-A01, 30 μM Chicago Sky Blue.
Chloride Free Dye Solution consisted of Chloride Free Buffer, 0.04% Pluronic F127, 20 μM Methyl Oxonol, 30 μM CaCCinh-A01, 30 μM Chicago Sky Blue.
Chloride Free Dye Stimulation Solution consisted of Chloride Free Dye Solution, 10 μM forskolin, 100 μM IBMX, and 300 nM Compound III.
Human intestinal epithelial enteroid cells were obtained from the Hubrecht Institute for Developmental Biology and Stem Cell Research, Utrecht, The Netherlands and expanded in T-Flasks as previously described (Dekkers J F, Wiegerinck C L, de Jonge H R, Bronsveld I, Janssens H M, de Winter-de Groot K M, Brandsma A M, de Jong N W M, Bijvelds M J C, Scholte B J, Nieuwenhuis E E S, van den Brink S, Clevers H, van der Ent C K, Middendorp S and M Beekman J M. A functional CFTR assay using primary cystic fibrosis intestinal organoids. Nat Med. 2013 July; 19(7):939-45.).
3. Enteroid Cell Harvesting and Seeding
Cells were recovered in cell recovery solution, collected by centrifugation at 650 rpm for 5 min at 4° C., resuspended in TrypLE and incubated for 5 min at 37° C. Cells were then collected by centrifugation at 650 rpm for 5 min at 4° C. and resuspended in IEMM containing 10 μM ROCK inhibitor (RI). The cell suspension was passed through a 40 μm cell strainer and resuspended at 1×10^6 cells/mL in IEMM containing 10 μM RI. Cells were seeded at 5000 cells/well into multi-well plates and incubated for overnight at 37° C., 95% humidity and 5% CO2 prior to assay.
4. Membrane Potential Dye, Enteroid Assay A
Enteroid cells were incubated with test compound in IEMM for 18-24 hours at 37° C., 95% humidity and 5% CO2. […] Briefly, cells were washed 5 times in Bath 1 Buffer. Bath 1 Dye Solution was added, and the cells were incubated for 25 min at room temperature. Following dye incubation, cells were washed 3 times in Chloride Free Dye Solution. Chloride transport was initiated by addition of Chloride Free Dye Stimulation Solution and the fluorescence signal was read for 15 min. […] Chloride transport was then expressed as a percentage of the chloride transport following treatment with 3 μM N-[(6-amino-2-pyridyl)sulfonyl]-6-(3-fluoro-5-isobutoxy-phenyl)-2-[(4S)-2,2,4-trimethylpyrrolidin-1-yl]pyridine-3-carboxamide, 3 μM (R)-1-(2,2-difluorobenzo[d][1,3]dioxol-5-yl)-N-(1-(2,3-dihydroxypropyl)-6-fluoro-2-(1-hydroxy-2-methylpropan-2-yl)-1H-indol-5-yl)cyclopropanecarboxamide and 300 nM acute N-[2,4-bis(1,1-dimethylethyl)-5-hydroxyphenyl]-1,4-dihydro-4-oxoquinoline-3-carboxamide triple combination control (% Activity).

In assay [2] the target is T1, CFTR. The experiment in a line: Membrane Potential Dye, Enteroid Assay B. It counts as cell-based. The conditions noted are these: for EC50: read-out: Ent. B EC50. The procedure, abridged:
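Human intestinal enteroid cells exposed to compound 18-24 h at 37 °C, then loaded with methyl oxonol membrane-potential dye plus CaCC blockers. Chloride transport triggered in chloride-free buffer with 10 μM forskolin, 100 μM IBMX, 300 nM Compound III; fluorescence read 15 min, expressed as % of triple-corrector/potentiator combination control.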

T1 sequence (P13569 with tags, fused parts or gaps DEL508-508): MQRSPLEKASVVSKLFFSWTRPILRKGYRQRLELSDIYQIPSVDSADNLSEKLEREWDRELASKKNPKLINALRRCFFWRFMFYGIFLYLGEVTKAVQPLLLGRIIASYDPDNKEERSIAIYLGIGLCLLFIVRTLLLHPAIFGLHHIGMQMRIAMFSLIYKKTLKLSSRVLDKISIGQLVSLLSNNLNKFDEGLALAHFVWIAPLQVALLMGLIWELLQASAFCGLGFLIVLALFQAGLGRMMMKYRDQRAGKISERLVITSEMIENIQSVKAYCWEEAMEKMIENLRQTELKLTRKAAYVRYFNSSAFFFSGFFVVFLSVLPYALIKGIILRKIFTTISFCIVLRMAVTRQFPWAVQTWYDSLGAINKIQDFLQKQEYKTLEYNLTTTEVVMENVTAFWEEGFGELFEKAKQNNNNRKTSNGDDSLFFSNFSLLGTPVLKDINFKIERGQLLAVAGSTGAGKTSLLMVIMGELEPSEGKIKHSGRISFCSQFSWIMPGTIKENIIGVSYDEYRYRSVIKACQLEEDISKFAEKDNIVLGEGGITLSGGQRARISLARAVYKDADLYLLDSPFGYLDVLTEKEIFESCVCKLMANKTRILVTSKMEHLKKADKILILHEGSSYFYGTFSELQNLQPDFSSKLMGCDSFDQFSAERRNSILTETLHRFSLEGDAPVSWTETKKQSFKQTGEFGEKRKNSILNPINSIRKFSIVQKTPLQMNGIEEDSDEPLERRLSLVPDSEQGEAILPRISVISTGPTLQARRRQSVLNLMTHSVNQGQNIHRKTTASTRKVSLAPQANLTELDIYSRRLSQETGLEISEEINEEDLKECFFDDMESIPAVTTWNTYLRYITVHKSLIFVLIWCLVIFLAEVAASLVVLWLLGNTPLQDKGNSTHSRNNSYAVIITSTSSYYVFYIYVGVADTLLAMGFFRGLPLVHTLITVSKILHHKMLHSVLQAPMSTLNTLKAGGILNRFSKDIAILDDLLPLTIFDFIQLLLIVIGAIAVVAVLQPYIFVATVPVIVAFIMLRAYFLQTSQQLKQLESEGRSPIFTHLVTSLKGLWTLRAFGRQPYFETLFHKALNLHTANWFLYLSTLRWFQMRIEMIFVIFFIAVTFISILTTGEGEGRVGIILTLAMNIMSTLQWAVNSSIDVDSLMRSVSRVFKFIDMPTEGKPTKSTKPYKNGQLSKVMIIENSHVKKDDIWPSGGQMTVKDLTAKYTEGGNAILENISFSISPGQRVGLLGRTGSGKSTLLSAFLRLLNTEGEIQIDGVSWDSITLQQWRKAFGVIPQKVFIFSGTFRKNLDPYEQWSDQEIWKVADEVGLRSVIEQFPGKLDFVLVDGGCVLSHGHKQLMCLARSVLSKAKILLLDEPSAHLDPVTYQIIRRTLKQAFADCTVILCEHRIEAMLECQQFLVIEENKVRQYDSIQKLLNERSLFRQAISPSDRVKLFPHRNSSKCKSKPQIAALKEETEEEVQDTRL

Consider `Cc1cccc(C)c1-c1cc2nc(n1)NS(=O)(=O)c1cccc(c1)C(=O)N(C1CC3(CCN(C(=O)OC(C)C)CC3)C1)[C@H](CC(C)C)CO2` [Compound 21, Isopropyl 2-[(11R)-6-(2,6-dimethylphenyl)-11-isobutyl-2,2,13-trioxo-9-oxa-2λ^6-thia-3,5,12,19-tetrazatricyclo[12.3.1.14,8]nonadeca-1(18),4(19),5,7,14,16-hexaen-12-yl]-7-azaspiro[3.5]nonane-7-carboxylate], for which, on CFTR [1], the “Ent. A Max Activity (%)” value was “+++ (+++ is >60%)” and the 50% effective concentration (EC50) (in general, the concentration giving half of the maximal effect) is less than 1000 nM. Moreover, at CFTR [2], the “Ent. B Max Activity (%)” value is “+++ (+++ is >60%)” and the EC50 is less than 1000 nM.
For `Cc1cccc(C)c1-c1cc2nc(n1)NS(=O)(=O)c1cccc(c1)C(=O)N([C@H]1C[C@@H](C#N)C1)[C@H](CC(C)C)CO2` (stereo in doubt) [Compound 469], at CFTR [1], the “Ent. A Max Activity (%)” value is recorded as “+++ (+++ is >60%)” and the EC50 was less than 1000 nM. Also, on CFTR [2], the “Ent. B Max Activity (%)” value is reported as “+++ (+++ is >60%)” and the concentration for a half-maximal effect (EC50) is less than 1000 nM.
On to `Cc1cccc(C)c1-c1cc2nc(n1)NS(=O)(=O)c1cccc(n1)C(=O)N(C1CC3(CC3)C1)[C@H](CC(C)(C)C)CO2` [Compound 401], for which, at CFTR [1], the “Ent. A Max Activity (%)” value is “+++ (+++ is >60%)” and the EC50 was less than 1000 nM. For the same compound, at CFTR [2], the “Ent. B Max Activity (%)” value is on record as “+++ (+++ is >60%)” and the concentration for a half-maximal effect (EC50) was less than 1000 nM.
Regarding `Cc1cccc(C)c1-c1cc2nc(n1)NS(=O)(=O)c1cccc(c1)C(=O)N(C1CCN(C)CC1)CCO2` [Compound 438], the “Ent. A Max Activity (%)” value at CFTR [1] is listed as “+ (+ is <300%)”.
As for `Cc1cccc(C)c1-c1cc2nc(n1)NS(=O)(=O)c1cccc(c1)C(=O)N(C1CC3(CCN(C(C)C)CC3)C1)[C@H](CC(C)C)CO2` [Compound 17, (11R)-6-(2,6-Dimethylphenyl)-11-isobutyl-12-(7-isopropyl-7-azaspiro[3.5]nonan-2-yl)-2,2-dioxo-9-oxa-2λ^6-thia-3,5,12,19-tetrazatricyclo[12.3.1.14,8]nonadeca-1(18),4(19),5,7,14,16-hexaen-13-one], on CFTR [1], the “Ent. A Max Activity (%)” value is “+++ (+++ is >60%)” and the EC50 was less than 1000 nM.
Consider `Cc1cccc(C)c1-c1cc2nc(n1)NS(=O)(=O)c1cccc(c1)C(=O)N([C@H]1C[C@]3(CCN(C(C)C)C3)C1)[C@H](CC(C)C)CO2` (single isomer, unassigned) [Compound 33], for which, on CFTR [1], the “Ent. A Max Activity (%)” value was “+++ (+++ is >60%)” and the concentration giving a half-maximal response (EC50) was less than 1000 nM.
For `CC(C)C[C@@H]1COc2cc(C3CCCCC3(C)C)nc(n2)NS(=O)(=O)c2cccc(c2)C(=O)N1C1CC2(CCN(C(=O)OC(C)(C)C)CC2)C1` (stereo partly drawn) [Compound 400] the same measures were “++ (++ is 30-60%)” and less than 1000 nM.
The matching figures for `Cc1cccc(C)c1-c1cc2nc(n1)NS(=O)(=O)c1cccc(c1)C(=O)N(C1CC3(CC3)C1)C(CC(F)(F)F)CO2` (single isomer, unassigned) [Compound 125, 6-(2,6-dimethylphenyl)-12-{spiro[2.3]hexan-5-yl}-11-(2,2,2-trifluoroethyl)-9-oxa-2λ^6-thia-3,5,12,19-tetraazatricyclo[12.3.1.14,8]nonadeca-1(17),4(19),5,7,14(18),15-hexaene-2,2,13-trione]: “++ (++ is 30-60%)” and less than 1000 nM.
Consider `Cc1cccc(C)c1-c1cc2nc(n1)NS(=O)(=O)c1cccc(c1)C(=O)N([C@H]1C[C@@H](O)C1)[C@H](CC(C)C)CO2` (single isomer, unassigned) [Compound 44], for which, at CFTR [1], the “Ent. A Max Activity (%)” value is given as “+++ (+++ is >60%)” and the EC50 is less than 1000 nM.
The matching figures for `Cc1cccc(C)c1-c1cc2nc(n1)NS(=O)(=O)c1cccc(c1)C(=O)N([C@H]1CC3(C[C@H](C(=O)N(C)C)C3)C1)[C@H](CC(C)C)CO2` (stereo partly drawn) [Compound 342]: “+++ (+++ is >60%)” and less than 1000 nM.
For the compound `Cc1cccc(C)c1-c1cc2nc(n1)NS(=O)(=O)c1cccc(c1)C(=O)N(C1CCC1)[C@H](CC(C)C)CO2` [Compound 27, (11R)-12-cyclobutyl-6-(2,6-dimethylphenyl)-11-isobutyl-2,2-dioxo-9-oxa-2λ^6-thia-3,5,12,19-tetrazatricyclo[12.3.1.14,8]nonadeca-1(18),4(19),5,7,14,16-hexaen-13-one], on CFTR [1], the “Ent. A Max Activity (%)” value is “++ (++ is 30-60%)” and the EC50 is less than 1000 nM.
For `COC(=O)N1CCC2(CC1)CC(N1C(=O)c3cccc(c3)S(=O)(=O)Nc3nc(cc(-c4c(C)cccc4C)n3)OC[C@@H]1CC(C)C)C2` [Compound 113, Methyl 2-[(11S)-6-(2,6-dimethylphenyl)-11-isobutyl-2,2,13-trioxo-9-oxa-2λ^6-thia-3,5,12,19-tetrazatricyclo[12.3.1.14,8]nonadeca-1(18),4(19),5,7,14,16-hexaen-12-yl]-7-azaspiro[3.5]nonane-7-carboxylate] the same measures were “++ (++ is 30-60%)” and less than 1000 nM.
For the compound `Cc1cccc(C)c1-c1cc2nc(n1)NS(=O)(=O)c1cccc(c1)C(=O)N([C@H]1CC3(C[C@H](N(C)C)C3)C1)[C@H](CC(C)C)CO2` (stereo partly drawn) [Compound 314], on CFTR [1], the “Ent. A Max Activity (%)” value is “+++ (+++ is >60%)” and the EC50 was less than 1000 nM.
For `COC(=O)N1CCC2(CC1)CC(N1C(=O)c3cccc(c3)S(=O)(=O)Nc3nc(cc(C4CCCCC4(C)C)n3)OC[C@H]1CC(C)C)C2` (stereo partly drawn) [Compound 395] the same measures were “++ (++ is 30-60%)” and less than 1000 nM.
The matching figures for `Cc1cccc(C)c1-c1cc2nc(n1)NS(=O)(=O)c1cccc(c1)C(=O)N([C@H]1C[C@@H](CO)C1)[C@H](CC(C)C)CO2` (single isomer, unassigned) [Compound 40]: “+++ (+++ is >60%)” and 1000 to 3000 nM.
For `Cc1cccc(C)c1-c1cc2nc(n1)NS(=O)(=O)c1cccc(c1)C(=O)N(C1CC3(CC3)C1)C(CC(C)(C)C(F)(F)F)CO2` (stereo not drawn) [Compound 216] the same measures were “+++ (+++ is >60%)” and less than 1000 nM.
As for `COC(=O)N1CCC2(CC(N3C(=O)c4cccc(c4)S(=O)(=O)Nc4nc(cc(-c5c(C)cccc5C)n4)OC[C@H]3CC(C)C)C2)C1` (stereo partly drawn) [Compound 328], on CFTR [1], the “Ent. A Max Activity (%)” value was “+++ (+++ is >60%)” and the EC50 is less than 1000 nM.
The matching figures for `Cc1cccc(C)c1-c1cc2nc(n1)NS(=O)(=O)c1cccc(c1)C(=O)N(C1CC3(COC3)C1)[C@H](CC(C)C)CO2` [Compound 29, (11R)-6-(2,6-Dimethylphenyl)-11-isobutyl-12-(2-oxaspiro[3.3]heptan-6-yl)-2,2-dioxo-9-oxa-2λ^6-thia-3,5,12,19-tetrazatricyclo[12.3.1.14,8]nonadeca-1(18),4(19),5,7,14,16-hexaen-13-one]: “+++ (+++ is >60%)” and less than 1000 nM.
For `Cc1cccc(C)c1-c1cc2nc(n1)NS(=O)(=O)c1cccc(c1)C(=O)N(C1CC3(CCCCC3)C1)[C@H](CC(C)C)CO2` [Compound 338] the same measures were “++ (++ is 30-60%)” and less than 1000 nM.
`Cc1cccc(C)c1-c1cc2nc(n1)NS(=O)(=O)c1cccc(c1)C(=O)N(C1CCC(C)(C)C1)[C@H](CC(C)C)CO2` (stereo partly drawn) [Compound 348]: on CFTR [1], the “Ent. A Max Activity (%)” value is recorded as “+++ (+++ is >60%)” and the EC50 was less than 1000 nM.

Values taken from patent US20230382925A1, “MODULATORS OF CYSTIC FIBROSIS TRANSMEMBRANE CONDUCTANCE REGULATOR” (VERTEX PHARMACEUTICALS INCORPORATED, priority 2020, published 2023).
